This is an account of results in paper PMC12538274, “Paltusotine versus octreotide: different effects on radioligand uptake in neuroendocrine tumours” (Endocrine Oncology, 2025).

Read-outs that look alike come from different tables or passages of the source.

Series [1] concerns the target T1, hSSTR2 (stable hSSTR2 over-expressing BON-1 cells, BON-1 SSTR2) (Homo sapiens, UniProt P30874).
T1 construct: expressed in transfected cells
Put plainly: 18F-SiTATE uptake assay. In kind it is cell-based.

Series [2] concerns BON-1 cells (human panNET). Put plainly: Cell Titer Blue cell viability assay, BON-1. Particulars: 72 h, vs DMSO control. In kind it is cell-based. The procedure: (§1) The BON-1 (human panNET; Prof. R Göke, University of Marburg, Germany), NCI-H727 (human bronchopulmonary NET; ATCC, USA) and QGP-1 cell lines (human panNET; JCRB Cell Bank, Japan) were cultured as previously described ([15]). Moreover, a stable hSSTR2 over-expressing BON-1 cell clone (BON-1 SSTR2) was generated as previously described ([16], [17]).
(§2) GEP-NET cell lines and primary cultures were treated for 72 h with either paltusotine or octreotide, and dimethyl sulfoxide (DMSO) was used as control. Cell Titer Blue® cell viability assay (Promega, USA) was then performed as previously described ([15], [21]). Each experiment included 3–4 samples per drug concentration and patient. Cell line experiments were performed at least three times.

The test system of another series is BON-1 SSTR2 cells. Put plainly: Cell Titer Blue cell viability assay, BON-1 SSTR2. The format is cell-based, human. As to conditions: 72 h, vs DMSO control.
The subject of series [3] is NCI-H727 cells (human bronchopulmonary NET). Nature of the series: Cell Titer Blue cell viability assay, NCI-H727. In kind it is cell-based. As to conditions: 72 h, vs DMSO control. The procedure: as §1, §2
Series [4] has as its system QGP-1 cells (human panNET). Nature of the series: Cell Titer Blue cell viability assay, QGP-1. As to conditions: 72 h, vs DMSO control. The format is cell-based. The method, then:
as §1, §2

The subject of series [5] is patient-derived GEP-NET primary cultures. Nature of the series: Cell Titer Blue cell viability assay, patient-derived GEP-NET primary cultures. In kind it is cell-based, human. Particulars: 72 h, n = 5. The source says:
Fresh patient-derived GEP-NET primary cultures were established from surgically-derived patient tumours as previously described ([18]). […] Eleven of these were metastatic GEP-NETs, including six […] = 2 with the carcinoid syndrome) and eight […]. The use of primary tumour tissue as part of NeoExNET was approved by the Ethics Committee of LMU Munich (project number 152-10) and by the Cantonal Ethics Committee Zurich (reference number BASEC 2017-00950). […] GEP-NET cell lines and primary cultures were treated for 72 h with either paltusotine or octreotide, and dimethyl sulfoxide (DMSO) was used as control. Cell Titer Blue® cell viability assay (Promega, USA) was then performed as previously described ([15], [21]). […] Cell line experiments were performed at least three times.

In another series the test system is SSTR2. As to conditions: read-out: SSTR2 binding affinity, IC50; cited from earlier work.
Series [6] concerns forskolin-stimulated cAMP accumulation. Also on record: method as in PMID 36810324. As to conditions: read-out: Inhibition of forskolin-stimulated cAMP accumulation, EC50; cited from earlier work.
Series [7] relates to SSTR2 on the cell surface of HEK293 cells. The arrangement: method as in PMID 36810324. Particulars: cited from earlier work. From the text: (§3) While G-protein (GP)- and arrestin (ARRB)-mediated effects are induced by full SSTR2 agonists such as octreotide ([35]), biased agonists with GP-mediated effects but diminished ARRB signalling have been reported ([35]). Arrestins play an important role in SSTR internalisation and recycling/degradation ([35]). Zhao et al. compared the molecular binding structure of octreotide and paltusotine to SSTR2 and their molecular signalling, examined β-arrestin recruitment and SSTR2 internalisation/loss of SSTR2 expression on the cell surface of HEK293 cells ([34]).

Series [8] relates to β-arrestin recruitment (SSTR2, HEK293 cells). Also on record: method as in PMID 36810324. As to conditions: cited from earlier work.
From the text: as §3

Another series deals with pituitary tumour cells. The arrangement: method as in PMID 36810324. Particulars: compared to octreotide; cited from earlier work.
For series [9] the following is noted: cited from earlier work. From the text: Paltusotine is currently being investigated in a randomised phase 2 trial in NET patients with the carcinoid syndrome (NCT05361668), with promising preliminary results ([13]), and a phase 3 trial is currently being planned ([14]). […] Recently, paltusotine received FDA approval for the treatment of patients with acromegaly ([11], [12]).

For series [10], the system named is NET patients with the carcinoid syndrome. Particulars: preliminary results, phase 2, NET patients with carcinoid syndrome; cited from earlier work. The source says: A newly developed, orally-bioavailable non-peptide SSTR2 agonist, paltusotine, might simplify SSA therapy and is taken orally once daily ([10]). Paltusotine recently received FDA approval for acromegaly treatment based on data from two phase 3 trials ([…]-1 and […]-2/NCT05192382) ([11], [12]).

The conditions of series [11]: cited from earlier work. The source holds these as a separate data set.
The next series relates to SSTR1/3/4/5. The arrangement: method as in PMID 11980628. As to conditions: cited from earlier work. From the text:
However, according to current guidelines as well as the FDA/EMA labelling instructions regarding Lutathera®, SSA therapy needs to be discontinued before PRRT ([7], [8], [9]). These recommendations stem from the fact that both SSAs and PRRT target the SSTR2. […] Moreover, long-acting octreotide and prolonged-release lanreotide maintain platea ...

T1 sequence (P30874 whole entry): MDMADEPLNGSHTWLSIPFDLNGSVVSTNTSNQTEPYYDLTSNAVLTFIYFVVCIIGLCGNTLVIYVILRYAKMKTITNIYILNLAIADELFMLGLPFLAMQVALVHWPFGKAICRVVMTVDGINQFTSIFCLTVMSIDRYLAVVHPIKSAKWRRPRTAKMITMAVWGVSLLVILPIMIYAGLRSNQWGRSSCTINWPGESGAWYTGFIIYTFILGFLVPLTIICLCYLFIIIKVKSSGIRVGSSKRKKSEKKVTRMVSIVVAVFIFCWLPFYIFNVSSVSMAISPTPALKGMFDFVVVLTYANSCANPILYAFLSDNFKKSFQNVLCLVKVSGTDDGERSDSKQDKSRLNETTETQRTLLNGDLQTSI

For `N#Cc1cccc(-c2ccc3ncc(-c4cc(F)cc(F)c4)c(N4CCC(N)CC4)c3c2)c1O` [paltusotine], the “Effect on 18F-SiTATE radioligand uptake compared to the unblocked control” value in series [1] (73–254 nM (1,000×) and 146–508 nM (2,000×)) is “no significant effects on cellular uptake”; in series [1] (low, clinically-relevant concentrations 7.3–25.4 nM (100×)), “no influence on radioligand binding compared to the unblocked control”. For the same compound, the “Effect on cell viability” value is given as “overall no anti-tumour effects” in [2] (BON-1, 4 nM); “slight, significant increase in viability” in series [2] (BON-1, 400 nM); “overall no anti-tumour effects” in the series on BON-1 SSTR2 cells (BON-1 SSTR2, 4 nM); “not found” in the series on BON-1 SSTR2 cells (BON-1 SSTR2, 400 nM); “overall no anti-tumour effects” in [3] (NCI-H727, 4 nM); “not found” in series [3] (NCI-H727, 400 nM). For the same compound, the “Effect on cell viability” value is given as “overall no anti-tumour effects” in series [4] (QGP-1, 4 nM) and “slight, significant decrease in cell viability” in series [4] (QGP-1, 400 nM). Also, the “Overall effect on cell viability” value in [5] (100 nM) and in series [5] (500 nM) was “overall slight anti-tumour effects” each time. The IC50 with SSTR2 was 0.25 nM. In series [6], the EC50 was 2.08 ± 1.39 nM. For the same compound, the SSTR2 internalisation/desensitisation result in series [7] is “less SSTR2 internalisation/desensitisation”. For the same compound, the β-arrestin recruitment entry in series [8] was “much lower β-arrestin recruitment”. Also, the Apoptotic rate result with pituitary tumour cells is on record as “increased apoptotic rate compared to octreotide”. Moreover, the Oral bioavailability entry in series [9] is “good oral bioavailability”. The Symptom control entry in series [10] is “improved symptom control”. Besides, the Tolerability entry in series [10] is “good tolerability”. The Plasma concentrations in [11] (in vivo) was 0.022 to 0.406 µM.

With somatostatin, in the series with SSTR2, the half-inhibitory concentration (IC50) was 0.15 nM.

In the case of `C[C@@H](O)[C@@H]1NC(=O)[C@H](CCCCN)NC(=O)[C@@H](Cc2c[nH]c3ccccc23)NC(=O)[C@H](Cc2ccccc2)NC(=O)[C@@H](NC(=O)[C@H](N)Cc2ccccc2)CSSC[C@@H](C(=O)N[C@H](CO)[C@@H](C)O)NC1=O` [octreotide], the Plasma concentrations entry in [11] (subcutaneous injections, humans) is reported as “up to 4 nM”.

For the compound lanreotide, in the series on SSTR2, the IC50 is 0.54 nM. Moreover, the “Binding affinity to SSTR1/3/4/5” value with SSTR1/3/4/5 is reported as “reduced or no binding affinity”.
